Data taken from PubChem BioAssay (NCI).
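Step 1: Grow cells in 96-well plates. Step 2: Expose to compound for 48 hours at 5 concentrations. Step 3: Interpolate endpoints linearly; if unreached, use highest concentration. The concentration for 50% growth inhibition is given as GI50. The concentration for full growth arrest is given as TGI.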

Legend:
Experiment in all cases: growth of human tumour cells (NCI), 48 h
[1] = test system: OVCAR-3 ovarian
[2] = test system: K-562 leukemia
[3] = test system: SK-MEL-2 melanoma
[4] = test system: NCI-H522 lung
[5] = test system: MALME-3M melanoma
[6] = test system: COLO 205 colon
[7] = test system: CCRF-CEM leukemia
[8] = test system: A549 NSCLC
[9] = test system: HL-60(TB) leukemia
[10] = test system: MCF7 breast
[11] = test system: 786-0 renal
[12] = test system: SW-620 colon
[13] = test system: U251 CNS
[14] = test system: UACC-62 melanoma
[15] = test system: HCT-116 colon
[16] = test system: OVCAR-4 ovarian
[17] = test system: SF-539 CNS
[18] = test system: PC-3 prostate
[19] = test system: M14 melanoma
[20] = test system: ACHN renal
[21] = test system: KM12 colon
[22] = test system: IGROV1 ovarian
[23] = test system: OVCAR-8 ovarian
[24] = test system: SF-268 CNS
[25] = test system: SK-MEL-5 melanoma
[26] = test system: HCT-15 colon
[27] = test system: HCC-2998 colon
[28] = test system: MDA-MB-468 breast
[29] = test system: HT29 colon

Compound CC(=O)Nc1ccc(-c2cn(-c3cccc(C(=O)Nc4cc(C(F)(F)F)cc(C(F)(F)F)c4)c3)nn2)cn1 has a GI50 [1] of 7.7 µM, a TGI [1] of 21.2 µM and a GI50 [2] of 0.154 µM. The TGI [2] was 10.5 µM, the GI50 [3] was 13.4 µM and the TGI [3] was 28.1 µM. It also gave a GI50 [4] of 12.3 µM, a TGI [4] of 30.8 µM and a GI50 [5] of 3.26 µM. The TGI [5] was 12.6 µM, the GI50 [6] was 7.14 µM and the TGI [6] was 23.7 µM. The GI50 [7] was 2.4 µM, the TGI [7] was 6.76 µM and the GI50 [8] was 4.54 µM. It also gave a TGI [8] of 16.3 µM, a GI50 [9] of 1.23 µM and a TGI [9] of 10.9 µM. For the same compound, the GI50 [10] was 4.68 µM, the TGI [10] was 21.8 µM and the GI50 [11] was 3.41 µM. For the same compound, the TGI [11] was 12 µM, the GI50 [12] was 7.85 µM and the TGI [12] was 24.1 µM. It also gave a GI50 [13] of 3.85 µM, a TGI [13] of 13.5 µM and a GI50 [14] of 13.5 µM. The TGI [14] was 29.8 µM, the GI50 [15] was 5.78 µM and the TGI [15] was 27.7 µM. For the same compound, the GI50 [16] was 11.9 µM, the TGI [16] was 31.7 µM and the GI50 [17] was 10 µM. The TGI [17] was 24.8 µM, the GI50 [18] was 3.4 µM and the TGI [18] was 10.8 µM. The GI50 [19] was 4.39 µM, the TGI [19] was 19.9 µM and the GI50 [20] was 11.1 µM. It also gave a TGI [20] of 37.5 µM, a GI50 [21] of 0.417 µM and a TGI [21] of 12.7 µM. For the same compound, the GI50 [22] was 16.4 µM, the TGI [22] was 35.3 µM and the GI50 [23] was 8.26 µM. The TGI [23] was 24.4 µM, the GI50 [24] was 21 µM and the TGI [24] was 64.7 µM. It also gave a GI50 [25] of 16.4 µM, a TGI [25] of 33.2 µM and a GI50 [26] of 10.9 µM. The TGI [26] was 33.1 µM, the GI50 [27] was 14 µM and the TGI [27] was 34.3 µM. For the same compound, the GI50 [28] was 3.46 µM, the TGI [28] was 16.2 µM and the GI50 [29] was 3.24 µM. It also gave a TGI [29] of 12.9 µM.
